Tests used:
[1] = system: type II diabetes animal model, Spontaneous Diabetic Torii (SDT) rat; experiment: Type II diabetes animal model, SDT rat; format: in vivo
Description: To investigate the preventive and therapeutic effect of Osteomeles schwerinae on diabetic complications in type II diabetes animal model, the extract was orally administered to Spontaneous Diabetic Torii (SDT) rats for 16 weeks, followed by analysis of the effect. Spontaneous Diabetic Torii (SDT) rats, the type II diabetes animal model, were used as test animals. Particularly, male SDT rats at 10 weeks (CLEA Japan Inc., Tokyo, Japan) were adapted for 1 week, and then raised for 15 weeks until high blood glucose was induced up to the level of 300 mg/dl. Feeds and water were provided freely. 15 weeks later, the rats were divided into 5 groups, 8 rats per each group. As test drugs, Osteomeles schwerinae extract (Os-100, OS-250) and metformin (MET, control drug) were orally administered once a day. The experimental groups were as follows: the normal group (NOR), the diabetes group (DM), the diabetes group treated with 350 mg/kg of metformin (MET), the diabetes group treated with 100 mg/kg of Osteomeles schwerinae extract (OS-100), and the diabetes group treated with 250 mg/kg of Osteomeles schwerinae extract (OS-250). Each group was orally administered with the test drug once a day for 16 weeks. Urine was taken for 24 hours before autopsy. The organs extracted from the autopsy were stored at −80° C.
The test animals were anesthetized by peritoneally injecting pentobarbital sodium (25 mg/kg body weight). Heart was extracted by opening abdominal cavity and thoracic cavity. 50 mg/ml of fluorescein-dextran (2×10^6 molecular weight) dissolved in 1 ml/ml sterilized PBS was injected in the left ventricle. 10 minutes later, eye balls were extracted. Retina was separated from eyecup of the left eye ball. The isolated retina was placed on the slide, followed by mounting with aqueous mounting medium. The slide was completely dried and observed under fluorescent microscope. Fluorescent material was injected in retinal blood vessel, followed by observation. […] To investigate blood-retinal barrier damage, outflow of the fluorescent material was observed. […] However, the fluorescent material was leaked out of blood vessels, indicating blood-retinal barrier damage, in multiple animals of the diabetes group (arrow), and non-perfusion area (arrow) caused by the blood vessel being narrow was also observed in some of those animals in the diabetes group.
Lens was separated and lens opacity was examined to investigate the preventive effect of the extract on lens opacity. Eye balls were extracted during autopsy, which were placed in PBS (phosphate buffered saline, pH 7.4). Lens was carefully separated from the eyeball by posterior approach. Then, iris and zonule were eliminated. The lens was photographed under optical microscope equipped with CCD camera (BX51, Olympus, Japan). Lens opacity was measured with the photographed lens images by using Scion image analyzer (Scion Corporation, USA). The results of investigation of lens opacity with the lens isolated from the eye ball extracted during autopsy are shown in FIG. 39 and in FIG. 40. […] Incidence rate of cataract and lens opacity were quantitatively analyzed.
Lens opacity is caused by the degeneration of lens fiber composing lens. Thus, to investigate the effect of Osteomeles schwerinae extract on lens fiber degeneration, the effect of Osteomeles schwerinae extract on lens fiber degeneration in SDT type II diabetes rat was analyzed. To observe the degeneration of lens fiber induced by cataract, lens was fixed in 10% neutralized formalin (Microme, USA) for 24 hours, followed by the conventional tissue treatment. After paraffin embedding, the embedded block was cut into 2 μm thick sections, followed by hydration. The sections were stained with rhodamine-labeled wheat-germ agglutinin (WGA, Vector Laboratory, USA), and observed under fluorescent microscope (BX51, Olympus, Japan). To investigate the preventive effect on lens fiber degeneration, lens was stained and observed. […]

[2] = system: type II diabetes animal model, Spontaneous Diabetic Torii (SDT) rat; experiment: Type II diabetes animal model, SDT rat; format: in vivo; details: oral once a day 16 weeks; extract 100 and 350 mg/kg as printed; metformin 350 mg/kg; vs diabetes group
[3] = Free radical scavenging activity by DPPH method; format: biochemical; details: 30 minutes, room temperature
Protocol: Anti-oxidative effect of Osteomeles […] extract, fractions thereof obtained from each of hexane layer, ethyl acetate layer, butanol layer and water layer of the extract was investigated in vitro. Free radical scavenging activity of each sample was measured by DPPH method (Brand-Williams W, et al., Technology, 1995, 28, 25-30). Samples were dissolved in ethanol, and diluted at different concentrations. Each of the diluted sample was distributed in 96 well plate (20 μl/well). […] DPPH solution dissolved in ethanol was added to each well by 180 μl to make the final volume of the reaction solution 200 μl, followed by reaction at room temperature for 30 minutes. Then, OD517 was measured with ELISA reader (Bio-TEK, Synergy HT, USA) to investigate absorbance changes by reduction of DPPH. Free radical scavenging activity was presented as RC50, which is the amount of sample (μg/ml) needed for the reduction of 50% DPPH. For the positive control, butylated hydroxytoluene (BHT) was used. Anti-oxidative effect of Osteomeles […] extract was measured in vitro by the same manner as described above and the results are shown in Table 7.

Structure (SMILES): CN(C)C(=N)N=C(N)N [metformin]
- blood-retinal barrier damage, outflow of the fluorescent material ([1]; 16 weeks): observed just barely
- pericyte loss, acellular capillary formation and closed vessels ([1]; 16 weeks): significantly inhibited
- GFAP positive reaction, Muller cell activation ([1]; 16 weeks, vs diabetes group): rather decreased
- aldose reductase (AR) activity in lens ([1]; 16 weeks, extract 250 mg/ml as printed, metformin, vs diabetes group): AR activity was significantly reduced
- lens fiber degeneration, swelling and vesicle formation ([1]; 16 weeks, extract high concentration, metformin 350 mg/kg): improving effect was hardly observed
- retinal angiogenesis, fluorescein-dextran ([1]; 16 weeks, extract low and high concentration, metformin 350 mg/kg): Angiogenesis was also observed
- podocyte loss, synaptopodin staining ([1]; 16 weeks, extract low and high concentration, metformin 350 mg/kg, vs diabetes group): no significant difference
- glomerular hypertrophy and mesangial matrix enlargement, PAS staining ([1]; oral once a day 16 weeks, extract 100 and 250 mg/kg, metformin 350 mg/kg): morphological changes were reduced, which was not significant
- level of AGEs in urine [2]: not significantly changed

Structure (SMILES): Cc1cc(C(C)(C)C)c(O)c(C(C)(C)C)c1 [BHT, butylated hydroxytoluene]
- RC50 (μg/ml), amount of sample needed for the reduction of 50% DPPH [3]: 26.75 ± 10.75 µg/mL

Source: patent publication US8784911B2, “Compositions for treatment and prevention of diabetic complications using Osteomeles schwerinae” (Korea Institute of Oriental Medicine, priority 2009, dated 2014)
